From PMC9185314 (RSC Advances, 2022)

Molecular target: Jack bean urease (Canavalia ensiformis, UniProt P07374)
Test: urease inhibition assay, indophenol
Assay type: biochemical

Sequence of Jack bean urease (P07374 whole entry, looked up): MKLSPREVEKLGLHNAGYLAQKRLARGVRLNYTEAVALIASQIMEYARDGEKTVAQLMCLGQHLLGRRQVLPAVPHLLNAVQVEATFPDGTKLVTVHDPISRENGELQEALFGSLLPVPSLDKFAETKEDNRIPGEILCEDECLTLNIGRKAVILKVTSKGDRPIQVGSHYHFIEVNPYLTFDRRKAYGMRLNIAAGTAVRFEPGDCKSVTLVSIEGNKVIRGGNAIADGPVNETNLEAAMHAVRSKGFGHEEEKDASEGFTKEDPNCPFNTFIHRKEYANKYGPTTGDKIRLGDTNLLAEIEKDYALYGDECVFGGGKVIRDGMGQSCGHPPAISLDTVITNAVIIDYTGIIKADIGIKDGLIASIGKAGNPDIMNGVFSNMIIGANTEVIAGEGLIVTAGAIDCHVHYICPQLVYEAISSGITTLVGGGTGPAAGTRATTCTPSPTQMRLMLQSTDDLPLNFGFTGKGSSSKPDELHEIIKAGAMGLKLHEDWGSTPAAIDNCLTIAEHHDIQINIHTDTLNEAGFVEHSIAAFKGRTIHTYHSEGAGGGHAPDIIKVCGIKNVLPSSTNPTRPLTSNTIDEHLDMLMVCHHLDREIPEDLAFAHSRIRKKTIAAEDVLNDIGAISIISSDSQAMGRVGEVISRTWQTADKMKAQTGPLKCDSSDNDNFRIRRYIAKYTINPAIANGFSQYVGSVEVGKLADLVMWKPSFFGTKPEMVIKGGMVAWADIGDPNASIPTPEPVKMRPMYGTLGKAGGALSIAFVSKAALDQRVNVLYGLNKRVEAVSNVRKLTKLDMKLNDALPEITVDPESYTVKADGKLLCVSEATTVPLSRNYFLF

- IC50: 38.9 ± 1.7 nM
Compound: CC(=O)c1ccc(NC(=S)NC(=O)c2ccc(Cl)cc2Cl)cc1 [compound 4, N-((4-Acetylphenyl)carbamothioyl)-2,4-dichlorobenzamide]
